Measurements: patent US20140154315A1, “Hydrophobic Preparations” (VAXCINE LTD., priority 2011, published 2014)

Tested on: collagen-induced arthritis (CIA) in DBA-1 mice
Experiment: Oral collagen II preparation in mouse collagen-induced arthritis model, Example 10
Format: in vivo
Conditions: 20 ug dose, oral gavage 4 times before CIA induction; FIGS. 1 and 2
Experimental: • 1. Ten-twelve week old male DBA-1 mice were weighed and divided into 3 groups (n=8/group) as outlined below. All groups were treated orally (by gavage) 4 times (days −10, −7, −5 & −3) prior to induction of collagen-induced arthritis (CIA) by injection of 100 ug collagen in Complete Freunds Adjuvant at the base of the tail. • 2. Arthritis was induced in all animals on day 0, followed by a boost on day 21, and incidence and severity assessed and scored on days 5, 7, 9, 12, 14, 16, 19 and 21 after the boost. Three treatment groups with 8 animals per group were used as outlined below: • (i). CIA+gavage with oil alone • (ii). CIA+gavage with oil containing bovine collagen II (10 μg/dose) • (iii). CIA+gavage with bovine collagen II ([…])
Clinical scores of arthritis incidence (% of animals in each group affected with arthritis of any severity in any number of joints) and arthritis severity (the severity of disease in each individual mouse) was performed after CIA induction for the duration of the experiment. A standard arthritis scoring system was used as outlined below. Each paw is evaluated for swelling and deformity, scored and a total calculated for each animal.
Score 0: No arthritis Score 1:1-2 toes affected only Score 2: 3 or >toes and/or swelling of the paw (metacarpus/metatarsus) Score 3: swelling of the carpus/tarsus Score 4: deformity with ankylosis of the carpus/tarsus • 3. […]

collagen alone: bovine collagen II given by gavage without oil formulation
number of animals suffering from arthritis (incidence): reduction in the number of animals suffering from arthritis
